Tested on: B16-F1 mouse melanoma cells
Experiment: Melanin Synthesis Assay
Type: cell-based
Procedure: A B16-F1 mouse melanoma cell line may be employed as an assay to measure melanin synthesis. The B16-F1 cells may be obtained from […], Virginia, USA. The cell culture medium that may be used in the assay may comprise 500 mL of Dulbecco's Modified Eagle's Medium (DMEM), 50 mL Fetal Bovine Serum (FBS), and 5 mL of penicillin-streptomycin liquid. B16-F1 cells that are cultured in this medium and grown to greater than 90% confluency synthesize melanin. While not intending to be bound by any theory, it is hypothesized that melanin synthesis is stimulated by the culture medium and/or stress induced by growth to a high confluency. The DMEM and FBS can be obtained from […] and the penicillin-streptomycin liquid can be obtained from Invitrogen, Inc., California, USA. Equipment used in the assay include a CO2 incubator, such as a Forma Series Model 3110 by Therma Scientific, Massachusetts, USA; a hemocytometer, such as a Bright Line model by Hauser Scientific, Pennsylvania, USA; and a UV-Visible Spectrum Plate Reader, such as a SpectraMax250 from Molecular Devices, California, USA. The assay steps may include: Day 0—Cell Growth: Warm the cell culture medium to 37° C. and place 29 mL into a T-150 flask. Add approximately 1×10^6 of B16-F1 passage 1 mouse cells to the T-150 flask and incubate for 3 days at 37° C., 5% CO2, 90% relative humidity, until ˜80% confluency; Day 3—Initiate a 96 Well Plate: At day 3, trypsinize the cells from the T-150 flask and determine the concentration of cells using a hemocytometer. Initiate a 96 well plate with 2,500 cells per well in 100 microliters of cell culture medium. […] Read the 96 well plate using the UV-Vis Plate Reader at 410 nm to optically measure the amount of melanin produced between wells that are treated with [test compound] and control wells that are not treated with a test compound. […] Percentage of melanin synthesis inhibition is calculated by the following equation: [formula] Where OD410 is the Optical Density at 410 nm as measured by the UV-Vis Spectrum Plate Reader. […]

SMILES: CC(C)=CCC[C@](C)(O)[C@@H]1CC=C(C)CC1 [Sample 1, bisabolol]
- reduction in the production of melanin as compared to Sample 4 (HD/UP/Nia) (Table 1 concentrations, B16-F1 mouse melanoma cells, statistical comparison): did not significantly reduce

SMILES: CCCCCCCCCCCCCCCCCCOCC(O)CO (stereo not drawn) [Sample 8, batyl alcohol]
- Average Melanin % Inhibition (Table 2, B16-F1 cells, where present: 0.03% batyl alcohol, 0.003% bisabolol, 0.0005% hexyldecanol, 0.0001% undecylenoyl phenylalanine, 0.0005% niacinamide): 7%
- reduction in the production of melanin as compared to Sample 9 (HD/UP/Nia) (Table 2 concentrations, mouse melanoma cells, statistical comparison): did not significantly reduce
